Tests used:
[1] = target: T1, ROCK1 kinase (Homo sapiens, UniProt Q13464); test: In vitro evaluation of ROCK1 kinase selectivity (HTRF KinEASE-STK time-resolved fluorometric assay); assay type: biochemical
T1 construct: purchased Invitrogen
Summary of the method: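 Recombinant ROCK1 (0.4 ng/μL final) preincubated with compound (1% DMSO) for 0.5 h at room temperature in buffer with 5 mM MgCl2 and 1 mM DTT. Reaction started with ATP and biotinylated STK-substrate 2 (3.53 μM and 1 μM final), run 2 h at room temperature. HTRF detection with STK antibody-Cryptate/streptavidin-XL665 after about 1 h.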

[2] = target: T2, ROCK2 kinase (Homo sapiens, UniProt O75116); test: In vitro evaluation of ROCK2 kinase activity (HTRF KinEASE-STK time-resolved fluorometric assay); assay type: biochemical
T2 construct: purchased Invitrogen PV3759
Summary of the method: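 ROCK2 (0.4 ng/μL final) was preincubated with compound (1% DMSO) for 0.5 h at room temperature in kinase buffer with 5 mM MgCl2, 1 mM DTT. Reaction with ATP 6.739 μM and STK-substrate 2-biotin 1 μM ran 2 h at room temperature; HTRF read-out after ~1 h detection.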

[3] = In vivo pharmacokinetic study in mice; conditions: mouse, plasma
Source text: In Vivo Pharmacokinetic Study of Compounds Disclosed Herein in Mice SPF-grade mice (SPF (Beijing) Biotechnology Co., Ltd.) were fasted overnight (without water deprivation) after adaptive feeding, and then received the compound of the present disclosure by intragastrical administration and bolus injection at tail vein. After administration, plasma of mice was collected at specific time points, and the concentration of the compound in the plasma was detected by LC-MS/MS (AB SCIEX Qtrap4500). The PK parameters of the compounds were statistically analyzed and calculated (WinNonlin V5.2, Pharsight) to show the pharmacokinetic properties of the compounds in mice.

[4] = In vitro cytotoxicity assay in HepG2 cells, CCK-8 method; conditions: human
Procedure: (§1) In vitro cytotoxicity assay for the compounds disclosed herein was performed in HepG2 cells using the CCK-8 method. HepG2 cells (Beina Bio) in the logarithmic growth phase were collected, the concentration of cell suspension was adjusted, and then the cells were plated on a 96-well cell culture plate at 50,000 cells/well. The cells were then incubated overnight in a cell incubator (5%, 37° C.), and after 80-90% cell confluence was achieved, test compound at each concentration gradient or vehicle (DMSO) was added after medium change. The resulting mixture was incubated in the cell incubator (5%, 37° C.) for 48 h. After the treatment, the medium in the plate was discarded. The plate was washed twice with PBS, added with CCK-8 working solution (Beyotime) at 100 μL per well, and then incubated at 37° C. for 1.5 h in the dark. Absorbance at OD450 nm was measured for each well on a microplate reader, and CC50 value of each compound was analyzed and calculated.

[5] = test system: HepG2 cells
Procedure: as §1

T1 sequence (Q13464 whole entry): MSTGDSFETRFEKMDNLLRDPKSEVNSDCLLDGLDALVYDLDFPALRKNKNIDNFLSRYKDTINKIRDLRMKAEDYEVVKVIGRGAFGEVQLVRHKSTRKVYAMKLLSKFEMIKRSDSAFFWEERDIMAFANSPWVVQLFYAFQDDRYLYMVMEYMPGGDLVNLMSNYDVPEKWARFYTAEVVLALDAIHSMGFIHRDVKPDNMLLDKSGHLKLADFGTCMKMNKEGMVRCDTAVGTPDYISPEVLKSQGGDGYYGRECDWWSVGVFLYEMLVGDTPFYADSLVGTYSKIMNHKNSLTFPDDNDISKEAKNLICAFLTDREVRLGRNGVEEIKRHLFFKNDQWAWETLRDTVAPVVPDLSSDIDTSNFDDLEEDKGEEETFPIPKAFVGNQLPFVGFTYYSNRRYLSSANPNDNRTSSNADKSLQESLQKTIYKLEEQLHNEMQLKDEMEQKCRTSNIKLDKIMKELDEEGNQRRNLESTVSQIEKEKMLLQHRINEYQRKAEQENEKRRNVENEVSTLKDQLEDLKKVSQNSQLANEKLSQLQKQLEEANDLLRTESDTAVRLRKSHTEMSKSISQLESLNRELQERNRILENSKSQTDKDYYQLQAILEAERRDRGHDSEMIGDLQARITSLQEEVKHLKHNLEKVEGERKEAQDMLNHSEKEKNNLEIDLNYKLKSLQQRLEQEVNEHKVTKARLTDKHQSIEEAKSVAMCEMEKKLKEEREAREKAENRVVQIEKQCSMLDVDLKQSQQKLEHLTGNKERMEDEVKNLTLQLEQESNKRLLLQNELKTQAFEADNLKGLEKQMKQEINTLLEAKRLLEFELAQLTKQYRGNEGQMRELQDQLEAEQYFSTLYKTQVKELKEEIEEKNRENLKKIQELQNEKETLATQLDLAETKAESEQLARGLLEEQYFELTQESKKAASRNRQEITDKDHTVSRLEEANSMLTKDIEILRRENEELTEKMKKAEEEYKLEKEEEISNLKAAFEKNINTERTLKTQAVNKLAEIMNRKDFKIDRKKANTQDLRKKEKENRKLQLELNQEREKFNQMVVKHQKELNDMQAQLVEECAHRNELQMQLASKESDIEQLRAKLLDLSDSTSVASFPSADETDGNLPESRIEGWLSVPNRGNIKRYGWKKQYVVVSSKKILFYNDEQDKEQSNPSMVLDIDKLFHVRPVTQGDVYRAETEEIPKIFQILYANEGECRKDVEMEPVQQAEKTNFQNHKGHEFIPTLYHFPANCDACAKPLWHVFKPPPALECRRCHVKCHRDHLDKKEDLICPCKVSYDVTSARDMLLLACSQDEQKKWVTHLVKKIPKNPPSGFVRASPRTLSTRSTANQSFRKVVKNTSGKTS
T2 sequence (O75116 whole entry): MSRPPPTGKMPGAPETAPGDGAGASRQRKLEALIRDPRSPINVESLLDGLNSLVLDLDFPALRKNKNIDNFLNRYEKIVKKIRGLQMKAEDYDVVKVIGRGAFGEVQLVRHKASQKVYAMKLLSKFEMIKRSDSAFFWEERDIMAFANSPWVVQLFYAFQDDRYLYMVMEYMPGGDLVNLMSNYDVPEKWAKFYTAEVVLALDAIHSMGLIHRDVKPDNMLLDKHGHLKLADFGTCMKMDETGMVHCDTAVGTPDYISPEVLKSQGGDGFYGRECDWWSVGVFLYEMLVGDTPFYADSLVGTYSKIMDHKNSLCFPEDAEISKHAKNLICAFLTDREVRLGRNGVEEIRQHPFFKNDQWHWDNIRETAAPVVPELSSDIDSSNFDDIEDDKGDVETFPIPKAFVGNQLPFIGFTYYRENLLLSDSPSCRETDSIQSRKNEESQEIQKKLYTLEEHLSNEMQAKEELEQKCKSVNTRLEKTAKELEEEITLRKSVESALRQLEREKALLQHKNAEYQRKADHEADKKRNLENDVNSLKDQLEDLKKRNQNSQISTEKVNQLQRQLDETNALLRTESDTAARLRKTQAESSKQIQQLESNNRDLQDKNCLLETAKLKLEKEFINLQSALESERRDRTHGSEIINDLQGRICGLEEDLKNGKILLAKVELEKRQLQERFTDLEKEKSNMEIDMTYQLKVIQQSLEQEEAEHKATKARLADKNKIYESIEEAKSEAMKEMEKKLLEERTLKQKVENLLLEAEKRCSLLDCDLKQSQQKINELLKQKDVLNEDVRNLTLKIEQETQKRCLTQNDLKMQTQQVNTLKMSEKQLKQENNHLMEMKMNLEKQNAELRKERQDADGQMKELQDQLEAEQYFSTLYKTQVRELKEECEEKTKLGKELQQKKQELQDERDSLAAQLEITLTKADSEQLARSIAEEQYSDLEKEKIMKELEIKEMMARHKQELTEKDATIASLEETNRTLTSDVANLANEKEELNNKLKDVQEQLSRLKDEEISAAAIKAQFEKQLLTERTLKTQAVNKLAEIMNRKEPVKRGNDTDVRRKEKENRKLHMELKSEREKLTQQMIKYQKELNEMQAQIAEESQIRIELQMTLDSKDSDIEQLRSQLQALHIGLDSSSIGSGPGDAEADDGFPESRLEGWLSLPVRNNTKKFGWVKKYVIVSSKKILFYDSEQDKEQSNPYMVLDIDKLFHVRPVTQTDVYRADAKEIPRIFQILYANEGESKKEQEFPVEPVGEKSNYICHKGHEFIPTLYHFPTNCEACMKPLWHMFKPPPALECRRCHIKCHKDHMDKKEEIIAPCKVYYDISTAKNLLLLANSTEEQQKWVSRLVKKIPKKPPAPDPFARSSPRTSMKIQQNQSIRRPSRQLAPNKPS

| Compound | IC50 [1] | IC50 [2] | bioavailability ([3]; 3 mg/kg Po vs Iv) | AUC(0-t) ([3]; Iv, 3 mg/kg) | Cmax ([3]; Iv, 3 mg/kg) | AUC(0-t) ([3]; Po, 3 mg/kg) | Cmax ([3]; Po, 3 mg/kg) | CC50 at 48 h [4] | CC50 [5] | bioavailability ([3]; 1 mg/kg Po vs Iv) | AUC(0-t) ([3]; Iv, 1 mg/kg) | Cmax ([3]; Iv, 1 mg/kg) | AUC(0-t) ([3]; Po, 1 mg/kg) | Cmax ([3]; Po, 1 mg/kg) |
| --- | --- | --- | --- | --- | --- | --- | --- | --- | --- | --- | --- | --- | --- | --- |
| COc1cc(F)cc(CNC(=O)N2CCc3cc(-c4cn[nH]c4)ccc32)c1 [Compound T202, N-(3-fluoro-5-methoxybenzyl)-5-(1H-pyrazol-4-yl)indoline-1-carboxamide] | ≤ 50 nM | ≤ 50 nM | 90.3% | 1740 ng·h/mL | 2340 ng/mL | 1570 ng·h/mL | 807 ng/mL | > 50000 nM | – | – | – | – | – | – |
| COc1cc(F)cc(C(=O)NC(=O)c2cn(C)c3cc(-c4cn[nH]c4)ccc23)c1 [Compound T203, 1-methyl-6-(1H-pyrazol-4-yl)-1H-indole-3-carboxylic acid-3-fluoro-5-methoxy-benzoylamide] | – | – | – | – | – | – | – | – | > 50000 nM | – | – | – | – | – |
| COc1cccc(CNC(=O)N2CCc3cc(-c4c[nH]nc4N)c(F)cc32)c1 [Compound T345, 5-(3-amino-1H-pyrazol-4-yl)-6-fluoro-N-(3-methoxybenzyl)indoline-1-carboxamide] | 50 to 500 nM | ≤ 50 nM | – | – | – | – | – | 40800 nM | – | 49.1% | 1260 ng·h/mL | 977 ng/mL | 618 ng·h/mL | 322 ng/mL |
| COc1cccc(CNC(=O)N2CCc3cc(-c4c[nH]nc4F)c(F)cc32)c1 [Compound T357, 6-fluoro-5-(3-fluoro-1H-pyrazol-4-yl)-N-(3-methoxybenzyl)indoline-1-carboxamide] | ≤ 50 nM | ≤ 50 nM | – | – | – | – | – | 96000 nM | – | 71.1% | 1090 ng·h/mL | 811 ng/mL | 775 ng·h/mL | 352 ng/mL |
| O=C(NCc1cc(F)cc(F)c1)N1CCc2cc(-c3cn[nH]c3F)c(F)cc21 [Compound T387, N-(3,5-difluorobenzyl)-6-fluoro-5-(5-fluoro-1H-pyrazol-4-yl)indoline-1-carboxamide] | ≤ 50 nM | ≤ 50 nM | – | – | – | – | – | > 100000 nM | – | 82.8% | 753 ng·h/mL | 492 ng/mL | 623 ng·h/mL | 188 ng/mL |
| COc1cccc(CNC(=O)c2ncn3cc(-c4cn[nH]c4F)ccc23)c1 [Compound T391, 6-(5-fluoro-1H-pyrazol-4-yl)-N-(3-methoxybenzyl)imidazo (1,5-a)pyridine-1-carboxamide] | ≤ 50 nM | ≤ 50 nM | – | – | – | – | – | > 100000 nM | – | – | – | – | – | – |
